Measured values as given in publication PMC9735679, “Identification and Evolution of a Natural Tetr Protein Based on Molecular Docking and Development of a Fluorescence Polari-Zation Assay for Multi-Detection of 10 Tetracyclines in Milk” (Foods, 2022).
Like-named read-outs stand apart in the source and are kept apart here.

Experiments:
Assay type in all cases: binding
natural TetR [1] = target: T1, natural TetR (Escherichia coli, UniProt P04483); test: Surface plasmon resonance affinity, natural TetR; conditions: for Kd: KD (equilibrium dissociation constant, Kd/Ka); for Kd / koff (dissociation rate constant): SPR
T1 construct: made in house
Procedure: (§1) After the experiments, the association constant (Ka), the dissociation constant (Kd), and the equilibrium dissociation constant (KD = Kd/Ka) for each drug were calculated. For convenience in comparing their affinities, the absolute affinity constant (KA = […]) for each drug was also calculated.

TetR mutant [2] = target: T2, TetR mutant (Escherichia coli, UniProt P04483, H139W); test: Surface plasmon resonance affinity, TetR mutant; conditions: SPR; for Kd: KD (equilibrium dissociation constant, Kd/Ka)
T2 construct: made in house; host or cells: E. coli Rosetta-gami(BL21), vector pET28a
Procedure: as §1
The primers were designed according to the virtual model: mutant for, […]; mutant rev, […]. The amplified gene was inserted into pET28a to construct the express vector that was transformed into E. coli Rosetta-gami(BL21) to express the mutant, and these procedures were according to our recent report. The obtained TetR mutant was characterized by using SDS-PAGE and western blotting according to our recent report, and its recognition ability for the 10 TCs was evaluated by the following FPA method. Furthermore, its recognition mechanisms and affinities for the 10 TCs were also determined as described above.

natural TetR [3] = target: T1, natural TetR; test: Fluorescence polarization assay (FPA) with natural TetR
Procedure: (§2) The FPA method was performed as follows. A total of 50 μL mutant, 50 μL TCs solution, and 50 μL fluorescent tracer were added into the wells of a 96-well microplate (in triplicate) and incubated for 2 min. Then the fluorescence polarization (FP) value of each well was recorded (λex 485 nm, λem 528 nm, emission cutoff of 515 nm). During the experiments, the two fluorescent tracers were compared, and several other parameters were optimized, including tracer concentration, mutant concentration, Mg^2+ concentration and incubation time. The 10 TCs and several other classes of drugs were all tested by this method. The competitive curve was developed by plotting the FP/FP0 values (the fluorescence polarization value at each concentration divided by that of zero concentration) versus the concentrations of the TCs (log C). Based on the developed competitive curve, the half of inhibition (IC50) and the limit of detection (IC10) for each drug were determined, respectively.
(§3) This is the first study reporting an FPA method for the determination of TCs. Under the optimal conditions, the 10 TCs were diluted with the extracts of a blank milk sample to be analyzed, respectively. […] During the experiments, the natural TetR was also used to perform the FPA method as described above.

TetR mutant [4] = target: T2, TetR mutant; test: Fluorescence polarization assay (FPA) with TetR mutant; conditions: for LOD (limit of detection, IC10) / FP values at 0 and 100 ng/mL: TetR mutant; for LOD (limit of detection, IC10): FPA, FA-MC tracer, drugs diluted with blank milk extract; for FP values at 0 and 100 ng/mL: either tracer (FITC-MC or FA-MC), specificity test
Procedure: as §2
For obtaining the best method performance, several parameters were optimized with DMC as the representative. Firstly, the concentrations of FA-MC and the mutant were optimized. During the experiments, the FA-MC and the mutant at different concentrations were mixed with the same concentration of DMC to perform the assay. […] Secondly, the concentration of Mg^2+ (MgCl2) was optimized. […] Thirdly, the competition time was optimized.
as §3

[5] = read-out: Ka (association constant), TetR without Mg2+, SPR
[6] = read-out: Ka (association constant), TetR+Mg2+, SPR

| Compound | Kd (natural TetR [1]; TetR without Mg2+) | Kd (natural TetR [1]; TetR+Mg2+) | koff (dissociation rate constant) (natural TetR [1]; TetR without Mg2+) | koff (dissociation rate constant) (natural TetR [1]; TetR+Mg2+) | kon (natural TetR [1]; [5]) | kon (natural TetR [1]; [6]) | Kd (TetR mutant [2]; TetR mutant without Mg2+) | Kd (TetR mutant [2]; TetR mutant+Mg2+) | Dissociation rate constant (koff) (TetR mutant [2]; TetR mutant without Mg2+) | Dissociation rate constant (koff) (TetR mutant [2]; TetR mutant+Mg2+) | IC50 (natural TetR [3]) | IC50 (TetR mutant [4]) | LOD (limit of detection, IC10) (TetR mutant [4]) | FP values at 0 and 100 ng/mL (TetR mutant [4]) |
| --- | --- | --- | --- | --- | --- | --- | --- | --- | --- | --- | --- | --- | --- | --- |
| CN(C)[C@@H]1C(O)=C(C(N)=O)C(=O)[C@@]2(O)C(O)=C3C(=O)c4c(O)cccc4C[C@H]3C[C@@H]12 [SC, Sancycline] | 59.5 nM | 70.2 nM | 0.000127 s⁻¹ | 0.000162 s⁻¹ | 2140 M⁻¹ s⁻¹ | 2310 M⁻¹ s⁻¹ | 0.593 nM | 0.417 nM | 6.35e-06 s⁻¹ | 5.79e-06 s⁻¹ | 106 nM | 70 nM | 0.7 ng/mL |  |
| CN(C)[C@@H]1C(O)=C(C(N)=O)C(=O)[C@@]2(O)C(O)=C3C(=O)c4c(O)cccc4[C@@](C)(O)[C@H]3C[C@@H]12 [TC, tetracycline] | 7690 nM | 4790 nM | 0.00156 s⁻¹ | 0.00133 s⁻¹ | 203 M⁻¹ s⁻¹ | 278 M⁻¹ s⁻¹ | 768 nM | 62.1 nM | 0.000156 s⁻¹ | 0.000121 s⁻¹ | 146 nM | 85.5 nM | 1.3 ng/mL |  |
| CN(C)c1cc(NC(=O)CNC(C)(C)C)c(O)c2c1C[C@H]1C[C@H]3[C@H](N(C)C)C(O)=C(C(N)=O)C(=O)[C@@]3(O)C(O)=C1C2=O [TIC, tigecycline] | 10.4 nM | 28.2 nM | 1.04e-05 s⁻¹ | 1.78e-05 s⁻¹ | 1010 M⁻¹ s⁻¹ | 633 M⁻¹ s⁻¹ | 0.104 nM | 0.104 nM | 9.45e-07 s⁻¹ | 1.78e-06 s⁻¹ | 52.6 nM | 27.3 nM | 0.4 ng/mL |  |
| CN(C)CCCN1c2ccccc2Sc2ccc(Cl)cc21 [chlorpromazine] |  |  |  |  |  |  |  |  |  |  |  |  |  | comparably high |
| O=C(O)c1cn(C2CC2)c2cc(N3CCNCC3)c(F)cc2c1=O [ciprofloxacin] |  |  |  |  |  |  |  |  |  |  |  |  |  | comparably high |
| CN1C(=O)CN=C(c2ccccc2)c2cc(Cl)ccc21 [diazepam] |  |  |  |  |  |  |  |  |  |  |  |  |  | comparably high |
| [H]/N=C(/N)N[C@H]1[C@H](O)[C@@H](O)[C@H](O[C@@H]2O[C@@H](C)[C@](O)(C=O)[C@H]2O[C@@H]2O[C@@H](CO)[C@H](O)[C@@H](O)[C@@H]2NC)[C@@H](N/C(N)=N\[H])[C@@H]1O [streptomycin] |  |  |  |  |  |  |  |  |  |  |  |  |  | comparably high |
